{"source": "patent US20260028334A1", "about": "“N-(3-(BENZO[B]THIOPHENE-2-CARBOXAMIDO)-PHENYL)-2,3-DIHYDROBENZO[B][1,4]DIOXINE-6-CARBOXAMIDE DERIVATIVES AND RELATED COMPOUNDS AS LACTATE/ATP PRODUCTION INHIBITORS FOR THE TREATMENT OF CANCER” (WMT Aktiengesellschaft, priority 2022, published 2026)", "molecular_target": "HIF1a (Homo sapiens (Human), UniProt Q16665)", "assay": "Western Blot analysis of HIF1a", "assay_type": "cell-based", "conditions": "HeLa cells, 24 hours, 0.1, 0.3 and 1 μM, normoxic and hypoxic conditions, FIG. 4", "experimental": "Western Blot analysis was used to detect amounts of specific protein in differently treated cells. Proteins are separated by size, transferred onto a nitrocellulose membrane and incubated with protein specific antibodies. The density of the observed band is proportional to the amount of the specific protein inside the cell.\nCells were plated at 4×10^6 (for hypoxia) or 3×10^6 (for normoxia) cells per […] plate in medium of high glucose DMEM (PAN) supplemented with 10% FBS (PAN), 2 mM glutamine-alanine (PAN), 2 mM pyruvate (Sigma) and 10 ml/L penicillin-streptomycin (PAN), and grown at 37° C. in 0.5% O2, 5% CO2 and 75% humidity. For hypoxia, cells were grown and treated in the Whitley H35 Hypoxystation (Don Whitley Scientific) at 37° C. in 0.5% O2, 5% CO2 and 75% humidity. Next day, the cells were treated with test compounds (FIG. 4: compounds of example 3/8 and 10 at concentrations 0.1, 0.3 and 1 μM, Bafilomycin A at 20 nM; FIG. 5: compounds of example 3/16, 3/8 and 10 at concentrations 10, 30 and 100 nM, Bafilomycin A at 20 nM), as well as with vehicle (DMSO) only, for 24 h. […] Protein concentration of the sample was measured using the DC Protein Assay Kit (Biorad, 5000112), 22 μg of protein extract per well was loaded onto a precast SDS page gel (Biorad, 1704273). […] The chemiluminescence was measured using chemiluminescent substrate (#34580, Thermo Scientific).", "data": [{"molecule": "O=C(Nc1ccc(F)c(NC(=O)c2cc3ccc(OCCCN4CCCC4)cc3s2)c1)c1ccc2c(c1)OCCO2", "note": "[3/8]", "values": [{"measurement": "HIF1a protein levels", "value": "dose-dependent reduction"}]}]}
